Like-named read-outs stand apart in the source and are kept apart here.
How the values were obtained:
[1] = Stability in human plasma; type: in vitro ADME; details: 37° C.
Method: Compounds and positive control samples were dissolved in 100% DMSO at 3 mM. To investigate the stability of the test compounds in plasma, samples were made by diluting test compounds into plasma from the stock solutions to obtain a test compound concentration of 3 μM (0.1% DMSO). Before addition of a test compound, 990 μl of plasma were preincubated at 37° C. for 5 min in eppendorf. After addition of a test compound, 70 μl for each time point were transferred to a 96-deepwell plate, previously warmed at 37° C. in a DUBNOFF water bath. Each compound was tested at five time points, in duplicate (10, 20, 30, 40 and 60 min). At each time point, an aliquot of 50 μl was taken and transferred to a new 96-deepwell plate, and the reaction was stopped with 200 μl of 100% acetonitrile containing 0.1% formic acid and the appropriate internal standard. Then samples were centrifuged at 1100×g for 30 min at +4° C. and supernatants were transferred to a new 96-deepwell plate. Samples were evaporated under N2 and reconstituted in H2O/ACN 0.1% Formic Acid (98:2). Analysis was performed without a calibration curve (Acquity UPLC-Waters; SciexAPI4000). Time 0 was obtained by adding acetonitrile before addition of the test compound.

[2] = test system: PANK2 silenced human neuroblastoma IMR32 cells (PANK2−/−); assay: Coenzyme A assay in PANK2 silenced cells (LC-MS quantification of free CoA); type: cell-based; details: compound added twice (24 h + 24 h), relative to 0.1% DMSO controls
Procedure, shortened: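 PANK2 shRNA-silenced IMR32 neuroblastoma cells were treated with compound (0.1% DMSO) for 24 h, then re-dosed with fresh compound for a further 24 h at 37 °C. TFA extracts of 1×10^6 cells were assayed for free CoA by LC-MS/MS (MRM 768.1→261.6/136.1). Results are given as fold change versus DMSO controls.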

[3] = human, plasma, Diastereoisomer A (upfield shift in 31P NMR), read-out: t1/2, Human Plasma, Diastereoisomer A (converted)
[4] = human, plasma, Diastereoisomer B, read-out: t1/2, Human Plasma, Diastereoisomer B (converted)

| Compound | half-life at 3 µM [1, 3] | half-life at 3 µM [1, 4] | PANK2−/− CoA (Fold Increase): fold increase in Coenzyme A (CoA) levels relative to controls [2] | half-life at 3 µM ([1]; Diastereoisomer A (upfield shift in 31P NMR), read-out: t1/2, Human Plasma, Diastereoisomer A (converted)) | t1/2, Human Plasma, Diastereoisomer B ([1]; Diastereoisomer B, 3 μM) |
| --- | --- | --- | --- | --- | --- |
| COC(=O)CCNC(=O)[C@@H]1O[P@@](=O)(N[C@@H](C)C(=O)OCCc2ccccn2)OCC1(C)C [compound 35, methyl 3-((2R,4R)-5,5-dimethyl-2-oxido-2-(((S)-1-oxo-1-(2-(pyridin-2-yl)ethoxy)propan-2-yl)amino)-1,3,2-dioxaphosphinane-4-carboxamido)propanoate] | > 1 h | 0.89 h | 2.23 Fold Increase | – | – |
| CC(C)[C@H](N[P@]1(=O)OCC(C)(C)[C@H](C(=O)NCCC(=O)OC(C)(C)C)O1)C(=O)OCCc1ccccc1 [compound 49, phenethyl ((2S,4R)-4-((3-(tert-butoxy)-3-oxopropyl)carbamoyl)-5,5-dimethyl-2-oxido-1,3,2-dioxaphosphinan-2-yl)-L-valinate] | > 1 h | – | 1.09 Fold Increase | – | – |
| COC(=O)CCNC(=O)[C@@H]1OP(=O)(N[C@@H](C)C(=O)OC2CCOC2)OCC1(C)C (stereo partly drawn) [compound 34, methyl 3-((4R)-5,5-dimethyl-2-oxido-2-(((2S)-1-oxo-1-((tetrahydrofuran-3-yl)oxy)propan-2-yl)amino)-1,3,2-dioxaphosphinane-4-carboxamido)propanoate] | – | – | 1.3 Fold Increase | > 1 h | >1 h |
| C[C@H](NP1(=O)OCC(C)(C)[C@H](C(=O)NCCC(=O)OC2Cc3ccccc3C2)O1)C(=O)OCCc1ccccc1 (stereo partly drawn) [1-54, 2,3-dihydro-1H-inden-2-yl 3-((4R)-5,5-dimethyl-2-oxido-2-(((S)-1-oxo-1-phenethoxypropan-2-yl)amino)-1,3,2-dioxaphosphinane-4-carboxamido)propanoate] | < 0.16 h | < 0.16 h | 1.13 Fold Increase | – | – |
| CN1CCCC(OC(=O)CCNC(=O)[C@@H]2OP(=O)(OCOC(=O)C(C)(C)C)OCC2(C)C)C1 (stereo partly drawn) [Compound No. 99, (((4R)-5,5-dimethyl-4-((3-((1-methylpiperidin-3-yl)oxy)-3-oxopropyl)carbamoyl)-2-oxido-1,3,2-dioxaphosphinan-2-yl)oxy)methyl pivalate] | 0.66 h | – | 10.44 Fold Increase | – | – |
| C[C@H](NP1(=O)OCC(C)(C)[C@H](C(=O)NCCC(=O)O[C@@H]2CCOC2)O1)C(=O)OCCc1ccccc1 (stereo partly drawn) [1-55, phenethyl ((4R)-5,5-dimethyl-2-oxido-4-((3-oxo-3-(((R)-tetrahydrofuran-3-yl)oxy)propyl)carbamoyl)-1,3,2-dioxaphosphinan-2-yl)-L-alaninate] | > 1 h | > 1 h | 2.09 Fold Increase | – | – |
| COC(=O)CCNC(=O)[C@@H]1OP(=O)(N[C@@H](Cc2cccnc2)C(=O)OCCc2ccccc2)OCC1(C)C (stereo partly drawn) [compound 36, phenethyl (2S)-2-(((4R)-4-((3-methoxy-3-oxopropyl)carbamoyl)-5,5-dimethyl-2-oxido-1,3,2-dioxaphosphinan-2-yl)amino)-3-(pyridin-3-yl)propanoate] | > 1 h | > 1 h | 2.44 Fold Increase | – | – |
| C[C@H](NP1(=O)OCC(C)(C)[C@H](C(=O)NCCC(=O)OCC2CC2)O1)C(=O)OCCc1ccccc1 (stereo partly drawn) [compound 37, cyclopropylmethyl 3-((4R)-5,5-dimethyl-2-oxido-2-(((S)-1-oxo-1-phenethoxypropan-2-yl)amino)-1,3,2-dioxaphosphinane-4-carboxamido)propanoate] | > 1 h | > 1 h | 1.9 Fold Increase | – | – |
| C[C@H](NP1(=O)OCC(C)(C)[C@H](C(=O)NCCC(=O)OCCN2CCCC2)O1)C(=O)OCCc1ccccc1 (stereo partly drawn) [compound 44, phenethyl ((4R)-5,5-dimethyl-2-oxido-4-((3-oxo-3-(2-(pyrrolidin-1-yl)ethoxy)propyl)carbamoyl)-1,3,2-dioxaphosphinan-2-yl)-L-alaninate] | > 1 h | – | 1.62 Fold Increase | – | – |
| C[C@H](NP1(=O)OCC(C)(C)[C@H](C(=O)NCCC(=O)OC[C@H]2CCC(=O)N2)O1)C(=O)OCCc1ccccc1 (stereo partly drawn) [compound 47, ((R)-5-oxopyrrolidin-2-yl)methyl 3-((4R)-5,5-dimethyl-2-oxido-2-(((S)-1-oxo-1-phenethoxypropan-2-yl)amino)-1,3,2-dioxaphosphinane-4-carboxamido)propanoate] | > 1 h | – | 1.38 Fold Increase | – | – |
| COC(=O)CCNC(=O)[C@@H]1OP(=O)(OCOC(=O)NCCSC(C)=O)OCC1(C)C (stereo partly drawn) [2-136, methyl 3-((4R)-2-((((2-(acetylthio)ethyl)carbamoyl)oxy)methoxy)-5,5-dimethyl-2-oxido-1,3,2-dioxaphosphinane-4-carboxamido)propanoate] | – | – | 1.41 Fold Increase | – | – |
| COC(=O)CCNC(=O)[C@@H]1O[P@](=O)(OCOC(=O)c2cc(C(C)(C)C)nn2C)OCC1(C)C [2-170, (((2R,4R)-4-((3-methoxy-3-oxopropyl)carbamoyl)-5,5-dimethyl-2-oxido-1,3,2-dioxaphosphinan-2-yl)oxy)methyl 3-(tert-butyl)-1-methyl-1H-pyrazole-5-carboxylate] | – | – | 82.88 Fold Increase | – | – |
| COC(=O)CCNC(=O)[C@@H]1O[P@@](=O)(OCOC(=O)NCCSC(=O)[C@@H](N)C(C)C)OCC1(C)C [2-194, methyl 3-((2S,4R)-2-((((2-((L-valyl)thio)ethyl)carbamoyl)oxy)methoxy)-5,5-dimethyl-2-oxido-1,3,2-dioxaphosphinane-4-carboxamido)propanoate] | – | – | 11.44 Fold Increase | – | – |
| COC(=O)CCNC(=O)[C@@H]1O[P@](=O)(OCOC(=O)N[C@@H](CSC(=O)C(C)(C)C)C(=O)O)OCC1(C)C [2-201, N-(((((2R,4R)-4-((3-methoxy-3-oxopropyl)carbamoyl)-5,5-dimethyl-2-oxido-1,3,2-dioxaphosphinan-2-yl)oxy)methoxy)carbonyl)-S-pivaloyl-L-cysteine] | – | – | 0.92 Fold Increase | – | – |
| COC(=O)CCNC(=O)[C@@H]1OP(=O)(OCCN2CCOCC2=O)OCC1(C)C (stereo partly drawn) [2-114, methyl 3-((4R)-5,5-dimethyl-2-oxido-2-(2-(3-oxomorpholino)ethoxy)-1,3,2-dioxaphosphinane-4-carboxamido)propanoate] | – | – | 1.87 Fold Increase | – | – |
| COC(=O)CCNC(=O)[C@@H]1OP(=O)(N2CCN(C(C)=O)CC2)OCC1(C)C (stereo partly drawn) [compound 139, methyl 3-((4R)-2-(4-acetylpiperazin-1-yl)-5,5-dimethyl-2-oxido-1,3,2-dioxaphosphinane-4-carboxamido)propanoate] | – | – | 2.72 Fold Increase | – | – |
| COC(=O)CCNC(=O)[C@@H]1O[P@@](=O)(Oc2ccc(C#N)cc2)OCC1(C)C [2-116, methyl 3-((2S,4R)-2-(1-cyanophenoxy)-5,5-dimethyl-2-oxido-1,3,2-dioxaphosphinane-4-carboxamido)propanoate] | – | – | 0.95 Fold Increase | – | – |
| COC(=O)CCNC(=O)[C@@H]1O[P@@](=O)(OCOC(=O)c2cc(C(C)(C)C)n[nH]2)OCC1(C)C [2-186, (((2S,4R)-4-((3-methoxy-3-oxopropyl)carbamoyl)-5,5-dimethyl-2-oxido-1,3,2-dioxaphosphuian-2-yl)oxy)methyl 3-(tert-butyl)-1H-pyrazole-5-carboxylate] | – | – | 101.14 Fold Increase | – | – |
| COC(=O)CCNC(=O)[C@@H]1O[P@](=O)(N[C@@H](C)C(=O)OC)OCC1(C)C [1-53, methyl 3-((2S,4R)-2-(((S)-1-methoxy-1-oxopropan-2-yl)amino)-5,5-dimethyl-2-oxido-1,3,2-dioxaphosphinane-4-carboxamido)propanoate] | – | – | 2.37 Fold Increase | – | – |
| COC(=O)CCNC(=O)[C@@H]1OP(=O)(OCOC(=O)NCCOC(=O)[C@@H](N)C(C)C)OCC1(C)C (stereo partly drawn) [2-195, 2-((((((4R)-4-((3-methoxy-3-oxopropyl)carbamoyl)-5,5-dimethyl-2-oxido-1,3,2-dioxaphosphinan-2-yl)oxy)methoxy)carbonyl)amino)ethyl L-valinate] | – | – | 1.91 Fold Increase | – | – |

From US10364263B2, “Cyclic phosphates and cyclic phosphoramidates for the treatment of neurologic disorders” (Retrophin, Inc., priority 2015, dated 2019)
